Patent publication US8822463B2, “Methylcyclohexane derivatives and uses thereof” (Sk Biopharmaceuticals Co., Ltd., priority 2010, dated 2014)
Counter-ions that a name gives are not always drawn.

What was measured:
[1] = system: LPS-induced NO production in mouse monocytes (RAW); experiment: LPS-induced NO production inhibition test, mouse monocytes (RAW); assay type: cell-based; conditions: Monocyte, RAW cells, 20 ng/ml LPS, 24 hours, Griess reagent
Experimental: (§1) Mouse monocytes (RAW) and mouse microglia (BV2) cells were cultured on a 96-well transparent plate (Nunc) in such a way that each of the wells contained 60,000 and 35,000 cells respectively. After 18 hours, when stabilized, the cells were treated with lipopolysaccharide (Sigma, USA, Cat No. L2630) in a morbid state derived from 20 ng/ml of Escherichia coli O111:B4 and 4 different concentrations (50 uM, 12.5 uM, 3.1 uM, and 0.8 uM) of the compounds synthesized according to Examples 1 to 55. Then, the cells were cultured for 24 hours, and a concentration of increased NO was measured. The NO concentration was determined by measuring absorption at a wavelength of 540 nm after a Griess reagent including 0.1% N-(1-naphthyl)ethylenediamine dihydrochloride, 1% sulfanilamide, and 2.5% phosphoric acid were added thereto.

[2] = system: LPS-induced NO production in mouse microglia (BV2); experiment: LPS-induced NO production inhibition test, mouse microglia (BV2); assay type: cell-based; conditions: BV-2, BV2 cells, 20 ng/ml LPS, 24 hours, Griess reagent
Experimental: as §1

| Structure (SMILES) | IC50 [1] [µM] | IC50 [2] [µM] |
| --- | --- | --- |
| O=C(OCC1CCC(OCc2ccccc2)CC1)N1CCCC1 (stereo not drawn) [Example 34, pyrrolidine-1-carboxylic acid 4-benzyloxy-cyclohexylmethyl ester] | 24.9 | 27.1 |
| O=C(OC1CCC(COC(=O)N2CCCC2)CC1)c1cccnc1 (stereo not drawn) [Example 31, pyridine-3-carboxylic acid 4-(pyrrolidine-1-carbonyloxymethyl)-cyclohexyl ester] | > 50 | 21.1 |
| O=C(NCCc1cccnc1)OC1CCC(COC(=O)N2CCCC2)CC1 (stereo not drawn) [Example 3, pyrrolidine-1-carboxylic acid 4-(2-pyridin-3-yl-ethylcarbamoyloxy)-cyclohexylmethyl ester] | 22.3 | 30.3 |
| O=C(OC1CCC(COC(=O)N2CCCC2)CC1)c1ccncc1 (stereo not drawn) [Example 32, pyridine-4-carboxylic acid 4-(pyrrolidine-1-carbonyloxymethyl)-cyclohexyl ester] | 21.1 | 34.8 |
| O=C(NCCc1ccccn1)OC1CCC(COC(=O)N2CCCC2)CC1 (stereo not drawn) [Example 2, pyrrolidine-1-carboxylic acid 4-(2-pyridin-2-yl-ethylcarbamoyloxy)-cyclohexylmethyl ester] | > 50 | 40.1 |
| O=C(NCc1ccccn1)OC1CCC(COC(=O)N2CCCC2)CC1 (stereo not drawn) [Example 7, pyrrolidine-1-carboxylic acid 4-(pyridin-2-ylmethylcarbamoyloxy)-cyclohexylmethyl ester] | > 50 | > 50 |
| O=C(OC1CCC(COC(=O)N2CCCC2)CC1)c1ccccn1 (stereo not drawn) [Example 30, pyridine-2-carboxylic acid 4-(pyrrolidine-1-carbonyloxymethyl)-cyclohexyl ester] | > 50 | > 50 |

Further lines, results first:

| IC50 [1] [µM] | IC50 [2] [µM] | Structure (SMILES) |
| --- | --- | --- |
| 33.9 | > 50 | O=C(NC1CCC(COC(=O)N2CCCC2)CC1)OCc1cc[n+]([O-])cc1 (stereo not drawn) [Example 53, pyrrolidine-1-carboxylic acid 4-(1-oxy-pyridin-4-ylmethoxycarbonylamino)-cyclohexylmethyl ester] |
| 10.5 | 12 | O=C(NC1CCC(COC(=O)N2CCCC2)CC1)OCc1ccnc(Cl)c1 (stereo not drawn) [Example 43, pyrrolidine-1-carboxylic acid 4-(2-chloro-pyridin-4-ylmethoxycarbonylamino)-cyclohexylmethyl ester] |
| 25.6 | > 50 | O=C(NCc1ccncc1)OC1CCC(CNC(=O)C2CCCC2)CC1 (stereo not drawn) [Example 55, pyridin-4-ylmethyl-carbamic acid 4-[(cyclopentanecarbonyl-amino)-methyl]-cyclohexyl ester] |
| 35.8 | > 50 | COc1ccc(CNC2CCC(COC(=O)N3CCCC3)CC2)cc1 (stereo not drawn) [Example 38, pyrrolidine-1-carboxylic acid 4-(4-methoxy-benzylamino)-cyclohexylmethyl ester HCl salt] |
| 13.1 | 21.1 | O=C(NC1CCC(COC(=O)N2CCCC2)CC1)OCc1ccc(Cl)nc1 (stereo not drawn) [Example 47, pyrrolidine-1-carboxylic acid 4-(6-chloro-pyridin-3-ylmethoxycarbonylamino)-cyclohexylmethyl ester] |
| 50 | > 50 | O=C(NC1CCC(COC(=O)N2CCCC2)CC1)OCc1cccc[n+]1[O-] (stereo not drawn) [Example 51, pyrrolidine-1-carboxylic acid 4-(1-oxy-pyridin-2-ylmethoxycarbonylamino)-cyclohexylmethyl ester] |
| 12 | 10.2 | Cc1cccc(COC(=O)NC2CCC(COC(=O)N3CCCC3)CC2)n1 (stereo not drawn) [Example 49, pyrrolidine-1-carboxylic acid 4-(6-methyl-pyridin-2-ylmethoxycarbonylamino)-cyclohexylmethyl ester] |
| > 50 | 50 | O=C(OCC1CCC(OCc2ccccn2)CC1)N1CCCC1 (stereo not drawn) [Example 35, pyrrolidine-1-carboxylic acid 4-(pyridin-2-ylmethoxy)-cyclohexylmethyl ester] |
